In patent US8163737B2 (Vertex Pharmaceuticals Incorporated, priority 2006, dated 2012):

These molecules were tested against endogenous CGRP receptor (Homo sapiens, UniProt O60894+Q16602) (assay: CGRP functional antagonism using SK-N-MC-BLA (4C10), β-lactamase transcriptional reporter assay). Details: SK-N-MC (4C10) cells, inhibition of β-lactamase expression in the presence of 200 pM CGRP.
Assay type: cell-based

Sequence of endogenous CGRP receptor (Q16602 23-461): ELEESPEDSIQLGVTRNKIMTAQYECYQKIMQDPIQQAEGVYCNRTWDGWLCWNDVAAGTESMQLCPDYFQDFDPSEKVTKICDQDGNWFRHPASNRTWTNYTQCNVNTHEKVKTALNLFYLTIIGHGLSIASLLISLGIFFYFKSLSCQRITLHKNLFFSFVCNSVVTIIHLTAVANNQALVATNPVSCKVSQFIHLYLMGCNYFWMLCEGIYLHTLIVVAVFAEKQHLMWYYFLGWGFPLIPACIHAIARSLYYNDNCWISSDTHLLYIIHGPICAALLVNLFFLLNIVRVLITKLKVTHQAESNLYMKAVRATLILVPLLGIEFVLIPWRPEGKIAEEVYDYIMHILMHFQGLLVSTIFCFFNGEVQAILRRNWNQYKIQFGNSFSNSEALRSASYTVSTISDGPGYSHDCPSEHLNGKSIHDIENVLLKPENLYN
Sequence of endogenous CGRP receptor (O60894 27-148): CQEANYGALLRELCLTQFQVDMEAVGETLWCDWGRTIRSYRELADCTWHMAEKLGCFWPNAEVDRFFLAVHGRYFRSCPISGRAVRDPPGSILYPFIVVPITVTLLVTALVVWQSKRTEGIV

Compared with `CC(C)CCN1C(=O)C(CC(=O)N2CCC(N3Cc4ccccc4NC3=O)CC2)SC1c1ccc2c(c1)OCCN2C` (centres unmarked) [Compound 232], `CC(C)CCN1C(=O)C(CC(=O)N2CCC(N3Cc4ccccc4NC3=O)CC2)SC1c1c(F)cccc1Cl` (centres unmarked) [Compound 166] is lower in IC50: 1000 to 5000 nM for the first, less than 1000 nM for the second. The second is the more potent here.

First: CCCN1C(=O)[C@H](CC(=O)N2CCC(N3CCc4ccccc4NC3=O)CC2)SC1c1cccc(F)c1N1CCN(C(C)(C)C)CC1 (some centres unmarked) [Compound 537]
Second: CC(C)(C)CCN1C(=O)C(CC(=O)N2CCC(N3CCc4ccccc4NC3=O)CC2)SC1c1cccc(F)c1N1CCN(CC(F)(F)F)CC1 (centres unmarked) [Compound 392]
The IC50 of the first is lower: less than 1000 nM for the first, greater than 5000 nM for the second.

First: CC(C)CCN1C(=O)C(CC(=O)N2CCC(N3Cc4ccccc4NC3=O)CC2)SC12CCOCC2 (centres unmarked) [Compound 196]
Second: CC(C)CCN1C(=O)C(CC(=O)N2CCC(N3Cc4ccccc4NC3=O)CC2)SC12CCC2 (centres unmarked) [Compound 275]
The IC50 of the first is lower: 1000 to 5000 nM for the first, greater than 5000 nM for the second. The first is the more potent here.

`CC(C)(C)CCN1C(=O)C(CC(=O)N2CCC(n3c(=O)[nH]c4ccccc43)CC2)SC1c1ccccc1N1CCOCC1` (centres unmarked) [Compound 300] and `CC(C)CCN1C(=O)C(CC(=O)N2CCC(n3c(=O)[nH]c4ccccc43)CC2)SC1c1ccccc1N(C)C` (centres unmarked) [Compound 293] cannot be ordered by IC50: less than 1000 nM for the first, less than 1000 nM for the second.

`CC(C)(C)CCN1C(=O)C(CC(=O)N2CCC(N3CCc4ccccc4NC3=O)CC2)SC12CCc1ccccc12` (centres unmarked) [Compound 318] and `O=C(CC1SC(c2ccccc2)N(CC2CC2)C1=O)N1CCC(N2CCc3ccccc3NC2=O)CC1` (centres unmarked) [Compound 138] cannot be ordered by IC50: less than 1000 nM for the first, less than 1000 nM for the second.

`CC(C)(C)CCN1C(=O)C(CC(=O)N2CCC(n3c(=O)[nH]c4ncccc43)CC2)SC1c1cccc(F)c1N1CCN(CC(F)(F)F)CC1` (centres unmarked) [Compound 393] and `CCN1CCN(c2c(F)cccc2C2SC(CC(=O)N3CCC(N4Cc5ccccc5NC4=O)CC3)C(=O)N2CCC(C)(C)C)CC1` (centres unmarked) [Compound 344] cannot be ordered by IC50: less than 1000 nM for the first, less than 1000 nM for the second.

First: CC(C)CCN1C(=O)C(CC(=O)N2CCC(N3CCc4ccccc4NC3=O)CC2)SC1c1c(Cl)cccc1Cl (centres unmarked) [Compound 89]
Second: CC(C)CCN1C(=O)C(CC(=O)N2CCC(N3Cc4ccccc4NC3=O)CC2)SC1c1cccc(C(F)(F)F)c1F (centres unmarked) [Compound 219]
The IC50 of the first is lower: less than 1000 nM for the first, 1000 to 5000 nM for the second. The first is the more potent here.

Going from `CC(C)(C)CCN1C(=O)C(CC(=O)N2CCC(n3c(=O)[nH]c4ncccc43)CC2)SC1c1ccccc1N1CCC(N2CCCCC2)CC1` (centres unmarked) [Compound 387] to `CCCCN1CCN(c2ccccc2C2SC(CC(=O)N3CCC(N4Cc5ccccc5NC4=O)CC3)C(=O)N2CCC(C)(C)C)CC1` (centres unmarked) [Compound 364], the IC50 rises from less than 1000 nM to greater than 5000 nM. The first is the more potent here.

First: CC(C)CCN1C(=O)C(CC(=O)N2CCC3(CC2)C(=O)Nc2ccccc23)SC1c1ccccc1 (centres unmarked) [Compound 111]
Second: CC(C)CCN1C(=O)C(CC(=O)N2CCC(c3cc4ccccc4[nH]c3=O)CC2)SC1c1ccccc1 (centres unmarked) [Compound 249]
The IC50 of the first is higher: greater than 5000 nM for the first, less than 1000 nM for the second. The second is the more potent here.

First: CC(C)CCN1C(=O)C(CC(=O)N2CCC(N3Cc4ccccc4NC3=O)CC2)SC1C(C)(C)C (centres unmarked) [Compound 75]
Second: CC1=CCCC(C)C1C1SC(CC(=O)N2CCC(N3CCc4ccccc4NC3=O)CC2)C(=O)N1CCC(C)C (centres unmarked) [Compound 181]
The IC50 of the first is higher: 1000 to 5000 nM for the first, less than 1000 nM for the second.

`O=C(CC1SC(Cc2ccccc2)N(CC(F)(F)F)C1=O)N1CCC(n2cc(-c3ccccc3)[nH]c2=O)CC1` (centres unmarked) [Compound 189] and `CN1CCN(c2c(Cl)cccc2C2SC(CC(=O)N3CCC(n4cc(-c5ccccc5)[nH]c4=O)CC3)C(=O)N2CCC(C)(C)C)CC1` (centres unmarked) [Compound 358] cannot be ordered by IC50: greater than 5000 nM for the first, greater than 5000 nM for the second.

First: O=C(CC1SC(C2CCOCC2)N(c2ccc(N3CCOCC3)cc2)C1=O)N1CCC(n2c(=O)[nH]c3ncccc32)CC1 (centres unmarked) [Compound 426]
Second: CN1CCN(c2c(F)cccc2C2SC(CC(=O)N3CCC(N4Cc5ccccc5NC4=O)CC3)C(=O)N2CCC(C)(C)C)CC1 (centres unmarked) [Compound 323]
The IC50 of the first is higher: 1000 to 5000 nM for the first, less than 1000 nM for the second. The second is the more potent here.

Going from `COCC(C)N1C(=O)C(CC(=O)N2CCC(N3Cc4ccccc4NC3=O)CC2)SC1c1ccccc1` (centres unmarked) [Compound 250] to `CN1CCN(c2cc(F)ccc2C2SC(CC(=O)N3CCC(N4Cc5ccccc5NC4=O)CC3)C(=O)N2CCC(C)(C)C)CC1` (centres unmarked) [Compound 360], the IC50 falls from greater than 5000 nM to less than 1000 nM. The second is the more potent here.
